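Protocol summary: plate cells (96-well), add compound at 5 concentrations, incubate 48 h, interpolate endpoints linearly. GI50 is the concentration that inhibits growth by half. The concentration for full growth arrest is given as TGI.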
Tests used:
Test in all cases: NCI anticancer screen, dose series, 48 h
HS 578T breast = test system: HS 578T breast
T-47D breast = test system: T-47D breast
BT-549 breast = test system: BT-549 breast
NCI/ADR-RES ovarian = test system: NCI/ADR-RES ovarian
DU-145 prostate = test system: DU-145 prostate
LXFL 529 NSCLC = test system: LXFL 529 NSCLC
XF 498 CNS = test system: XF 498 CNS
DLD-1 colon = test system: DLD-1 colon
SNB-78 CNS = test system: SNB-78 CNS

| Compound | GI50 (HS 578T breast) [µM] | TGI (HS 578T breast) [µM] | GI50 (T-47D breast) [µM] | TGI (T-47D breast) [µM] | GI50 (BT-549 breast) [µM] | TGI (BT-549 breast) [µM] | GI50 (NCI/ADR-RES ovarian) [µM] | TGI (NCI/ADR-RES ovarian) [µM] | GI50 (DU-145 prostate) [µM] | TGI (DU-145 prostate) [µM] | GI50 (LXFL 529 NSCLC) [µM] | TGI (LXFL 529 NSCLC) [µM] | GI50 (XF 498 CNS) [µM] | TGI (XF 498 CNS) [µM] | GI50 (DLD-1 colon) [µM] | TGI (DLD-1 colon) [µM] | TGI (SNB-78 CNS) [µM] |
| --- | --- | --- | --- | --- | --- | --- | --- | --- | --- | --- | --- | --- | --- | --- | --- | --- | --- |
| Cc1cn2c(/C=N/N/C(N)=N\N)c(-c3ccc(Cl)c([N+](=O)[O-])c3)nc2s1 | 1.1 | 2.39 | 0.878 | 2.48 | 1.12 | 2.36 | 15.7 | 46.8 | 1.12 | 3.65 | – | – | – | – | – | – | – |
| COc1ccc2c(c1)nc(N)c1c3cccnc3cn21 | 0.0951 | > 49.6 | 6.75 | 33.4 | 0.447 | 28.9 | 0.0382 | 50.2 | 0.0561 | > 33.6 | – | – | – | – | – | – | – |
| O=[N+]([O-])c1ccc(CS(=O)Cc2ccccc2)cc1 (centres undefined) | – | > 100 | – | > 100 | – | > 100 | – | > 100 | – | > 100 | – | – | – | – | – | – | – |
| C=C[C@]1(C)C=C2C(=O)[C@@]3(O)OC[C@@]4(CCCC(C)(C)C43O)C2(O)C(O)C1 (some centres undefined) | 5.13 | 22.2 | 0.759 | 2.43 | 3.47 | 13.2 | 2.33 | 6.62 | 3.03 | 11.6 | – | – | – | – | – | – | – |
| O=C(Nc1ccc2c(c1)oc(=O)c1ccccc12)C(Cl)Cl | – | > 100 | – | > 100 | – | > 100 | – | > 100 | – | > 100 | – | – | – | – | – | – | – |
| C=C(C)[C@@H]1CC[C@@]2(C)[C@H]1[C@H]1CCC3[C@@]4(C)CC[C@H](O)C(C)(C)[C@@H]4CC[C@@]3(C)[C@]1(C)C[C@@H]2O (some centres undefined) | – | – | – | > 100 | – | > 100 | – | > 100 | – | > 100 | – | – | – | – | – | – | – |
| Nc1nc(Nc2cccc(F)c2)nc2ccccc12 | 20 | 58 | 15.6 | 63 | 30.2 | > 100 | 26.7 | 94.3 | 37.3 | > 100 | – | – | – | – | – | – | – |
| CCOC(=O)c1c(C)n(Cc2ccc(Cl)cc2Cl)c2c1cc1oc(=O)c(=O)n3c(Cc4ccccc4)nc2c13 | 1.21 | 3.12 | 4.9 | 22.2 | 2.55 | 6.4 | 5.46 | 18.3 | 2.45 | 6.64 | – | – | – | – | – | – | – |
| COC(=O)[C@@H]1CCCN1C(=O)[C@@H]1CCCN1C(=O)[C@@H](Cc1c[nH]c2ccccc12)NC(=S)Nc1cc(C(F)(F)F)cc(C(F)(F)F)c1 | 7.81 | > 100 | 2.91 | 9.5 | 4.75 | 28.6 | > 100 | > 100 | 14.6 | > 100 | – | – | – | – | – | – | – |
| COc1ccc2c(c1)C(=O)c1c-2n(CCCN2CCOCC2)c(=O)c2ccccc12 | 8.95 | > 100 | 1.55 | 7.41 | 2.55 | 13.6 | 3.8 | > 93.1 | 2.39 | 10.2 | – | – | – | – | – | – | – |
| CC(=O)C1=C([O-])C(C)OC1=O.CC(=O)C1=C([O-])C(C)OC1=O.[NH-]C1CCCC[C@H]1[NH-].[Pt+4] (centres undefined) | – | – | – | – | – | – | – | – | – | – | 36.2 | > 100 | 66.9 | > 100 | > 100 | > 100 | – |
| Oc1cc(Cl)ccc1Oc1ccc(Cl)cc1Cl | 4.54 | 42.6 | 3.03 | 9.94 | 2.62 | 5.95 | 2.81 | 7.93 | 4.61 | 16.3 | – | – | – | – | – | – | – |
| Nc1nc(OCc2ccccc2)nc2[nH]ncc12 | 17.5 | 38.5 | 4.12 | 9.69 | 23.2 | 54.8 | 17.6 | 42.4 | 18.4 | > 100 | – | – | – | – | – | – | – |
| C[C@H](CS(C)(=O)=O)Nc1ncc2cc(Oc3ccc(F)cc3F)c(=O)n(C)c2n1 | > 25 | > 25 | > 25 | > 25 | > 25 | > 25 | > 25 | > 25 | > 25 | > 25 | – | – | – | – | – | – | – |
| COC(=O)[C@]1(C)CCC[C@@]2(C)C1CCC1=C[C@@]3(C(C)C)CC[C@]12OO3 (some centres undefined) | – | – | – | – | – | – | – | – | – | – | – | 74.1 | – | – | – | 71.5 | > 100 |
| CC1=CC(=O)C(C(C)=Nc2ccccc2Cl)C(=O)O1 (centres undefined) | > 100 | > 100 | > 100 | > 100 | – | – | > 100 | > 100 | > 100 | > 100 | – | – | – | – | – | – | – |
| Cc1ncc([N+](=O)[O-])n1CCNC(=O)CCCn1cnc([N+](=O)[O-])n1 | – | > 100 | – | > 100 | – | – | – | > 100 | – | > 100 | – | – | – | – | – | – | – |
| CS(=O)(=O)Nc1cc(-c2ccc3ncnc(Nc4ccc5c(cnn5Cc5ccc(F)cc5)c4)c3c2)cnc1Cl | 0.246 | 2.04 | 0.256 | 2.23 | 0.957 | 6.47 | 17 | > 100 | 2.66 | 19.1 | – | – | – | – | – | – | – |
| Cc1c(C)c2ccc(OC/C=C3\CCC(=O)O3)cc2oc1=O | 20.2 | 55.9 | 14.5 | 47.8 | 15.2 | 28.9 | 16.9 | 35.7 | 12.2 | 26.1 | – | – | – | – | – | – | – |
| O=c1oc2ccc(Cl)cc2c(=O)n1-c1ccc(I)cc1F | 0.161 | 1.11 | 0.152 | 1.11 | 0.168 | 1 | 0.3 | 2.87 | 0.436 | > 49.5 | – | – | – | – | – | – | – |
| O=c1[nH]cnc2c(C3OC(CO)C(O)C3O)scc12 (centres undefined) | > 100 | > 100 | > 100 | > 100 | > 100 | > 100 | 44.5 | > 100 | 5.47 | > 100 | – | – | – | – | – | – | – |
| CC(=O)OC1C2(CC3N4C(=O)C5(CO)SSC4(CC31O)C(=O)N5C)OC(C)C(C)(C)C2=O (centres undefined) | 0.0449 | 0.213 | < 0.01 | 0.0782 | 0.146 | 0.728 | < 0.042 | 0.879 | – | 0.267 | – | – | – | – | – | – | – |
| COc1ccccc1-c1c(C)nn2c(NCc3ccccn3)cc(C)nc12 | > 44.7 | > 50 | 1.04 | > 50 | > 37.3 | > 50 | 24.5 | > 50 | > 40.2 | > 50 | – | – | – | – | – | – | – |
